From publication PMC5481817, “Developing Targeted Hybrid Imaging Probes by Chelator Scaffolding” (Bioconjugate chemistry, 2017)
One block for each molecule: values may come before it. *1 amine or outer side, *2 acyl side, *3 side chain or, on linkers, in order; H or OH if unused. Where a SMILES comes first, the peptide text is derived from it. Bridges are numbered along the chain shown (N, C = ends). Roman numbers before positions name the chains, in order. [ ]: non-standard residue; d: D form. X2 = CC1=CC(=O)N(O)CCCC(NC(=O)CCN2C(=O)CC([*:2])C2=O)C(=O)OCCC(C)=CC(=O)N(O)CCCC(NC(=O)CCN2C(=O)CC([*:1])C2=O)C(=O)OCCC(C)=CC(=O)N(O)CCCC(NC(=O)CCCCC[N+]2=C(C=CC3=CC(=CC=C4N(C)c5ccc(S(=O)(=O)O)cc5C4(C)C)CCC3)C(C)(C)c3cc(S(=O)(=O)[O-])ccc32)C(=O)OCC1; Mpa = O=C(O)CCS

How the values were obtained:
integrin αvβ3 = biological target: T1, integrin αvβ3 (Homo sapiens, UniProt P05106+P06756); test: Integrin binding affinity assay (displacement of [125I]-c(RGDyV)) on M21 cells
T1 construct: endogenous in cells; host or cells: human melanoma M21 cells (gift from D. A. Cheresh)
Description: (§1) Receptor binding affinities were evaluated via a displacement cell-binding assay for metal free as well as metal bound ([^natGa]) conjugates. Binding of nonradioactive gallium was performed in analogy to the radiolabeling procedure but instead of the generator eluate a 100-fold molar excess of gallium bromide (GaBr3) dissolved in 100 μL 0.1 N HCl was used. Cells were prepared as described below and incubated with increasing concentrations [0.001–1000 nM] of competitor in triplicate. After addition of corresponding iodinated radioligand the 96-well MulitScreen Filter Plates HTS (1 μm glass fiber filter, Merck Millipore, Darmstadt, Germany) were incubated for 1 or 2 h at RT under shaking conditions (Compact shaker KS-15 control, 200/min) and after a washing step the remaining activity on the filter was measured in the γ-counter. The receptor affinity of DOTA-minigastrin11 as well as c(RGDyV) were determined under the corresponding conditions as a reference. IC50 values were calculated by using nonlinear curve fitting with following formula NS+SB/(1+x/IC50) on Origin 6.1 software (Northampton, MA, USA). A detailed description regarding iodination can be found in the Supporting Information.
Integrin binding affinity assay was adapted from Yun Wu et al.[31] Briefly, M21 cells were washed two times with phosphate buffered saline followed by suspension in binding buffer (=20 mM TRIS pH 7.4 + 150 mM NaCl + 2 mM CaCl2 + 1 mM MgCl2 + 1 mM MnCl2 0.1% BSA). 96-well plates were washed with 200 μL of 20 mM TRIS-buffer and seeded with 1 × 10^6 cells/well (10^7 cells/mL). After 10 min of incubation in the presence of the competitor {([^natGa])Sulfo-Cy7-FSC-RGD or c(RGDyV) diluted in binding buffer)} volume was adjusted to 200 μL/well by adding 50 μL of radioligand ([^125I]-c(RGDyV), 4.5 × 10^4 cpm) and the plate was left for 2 h at RT. Finally the supernatant was removed by vacuum and each well was washed three times with 200 μL ice-cold binding buffer.

human CCK-2 receptor = biological target: T2, human CCK-2 receptor (Homo sapiens, UniProt P32239); test: Whole cell receptor binding affinity (displacement of [125I]-[Leu15]-Gastrin I) on A431-CCK2R cells
T2 construct: expressed in transfected cells; host or cells: A431 human squamous carcinoma cells (gift from L. Aloj)
T2 sequence (P32239 1-447): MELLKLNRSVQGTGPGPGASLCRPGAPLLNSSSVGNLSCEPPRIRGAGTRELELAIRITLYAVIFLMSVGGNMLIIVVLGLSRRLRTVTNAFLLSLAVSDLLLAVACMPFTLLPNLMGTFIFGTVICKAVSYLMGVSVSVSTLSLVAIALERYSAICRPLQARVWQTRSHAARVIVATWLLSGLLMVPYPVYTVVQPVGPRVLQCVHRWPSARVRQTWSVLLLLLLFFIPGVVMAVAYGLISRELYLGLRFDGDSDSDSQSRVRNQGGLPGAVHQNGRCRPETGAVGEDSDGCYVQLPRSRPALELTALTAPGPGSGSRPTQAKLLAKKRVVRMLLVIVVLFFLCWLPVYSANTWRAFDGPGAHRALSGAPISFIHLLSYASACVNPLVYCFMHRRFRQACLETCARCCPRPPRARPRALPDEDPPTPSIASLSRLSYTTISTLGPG
Description: as §1
A431-CCK2R cells were diluted in 50 mM HEPES buffer (pH 7.3) containing 5 mM MgCl2 and 0.3% BSA to a density of 5 × 10^6 cells/mL. 96-well plates were washed with 200 μL of 10 mM TRIS buffered saline (pH 7.3) and 100 μL of cell suspension were added to each well. Hereafter 50 μL of competitor solution {([^natGa])Sulfo-Cy7-FSC-MG or DOTA-minigastrin^11 diluted in 20 mM HEPES; 10 mM MgCl2 and 0.1% BSA} of each concentration were added and left for 10 min at RT. After incubation with 50 μL of radioligand (human [^125I]-[Leu^15]-Gastrin I 4.5 × 10^4 cpm) for 1 h the plate was washed twice with 200 μL TRIS-buffer/well.

A431-CCK2R cells = test: Fluorescence measured cell specificity, A431-CCK2R; assay type: cell-based, human; conditions: 2 h incubation, 3 nM ligand
Description: Fluorescence assays were conducted similarly to the internalization assays except for using lower cell numbers and determining only the cellbound fraction. Briefly, A431-CCK2R, M21, and M21-L cells were diluted in corresponding media to a density of 2 × 10^6 cells/mL. Aliquots of 0.5 mL were transferred to Eppendorf tubes—six technical replicates for A431-CCK2R unblocked and blocked and M21/M21-L, respectively—and treated in the same manner as described above. The nonradiolabeled particular ligand was added to a final concentration of 3 nM and the tubes were kept in an incubator (Incubator hood TH15 and Compact shaker KS-15 control, Edmund Bühler GmbH, Hechingen, Germany) at 37 °C for 2 h under vigorously shaking (420/min). After centrifugation (2 min, 5000 rpm) washing steps were performed as mentioned before. […] Fluorescence intensity was measured with Tecan Infinite 200 PRO series multiplate reader (Tecan Trading AG, Switzerland) by using Tecan Icontrol 1.1 software. Parameters were set as follows: Fluorescence Top reading; excitation/emission wavelength 740/790 nm; excitation bandwidth 9 nm; emission bandwidth 20 nm; gain optimal; number of flashes 25; integration time 25 μs. Results were calculated and expressed as percentage of cell-bound fluorescence in relation to the standards sample.

[1] = system: A431-CCK2R/A431-mock tumor xenograft-bearing BALB/c nude mice; test: Near-infrared fluorescence imaging, A431-CCK2R/A431-mock xenografts; assay type: in vivo, mouse
Description: All animal experiments were conducted in accordance with regulations and guidelines of the Czech Animal Protection Act (No. 246/1992), and with the approval of the Czech Ministry of Education, Youth, and Sports (MSMT-22421/2013–12), and the institutional Animal Welfare Committee of the Faculty of Medicine and Dentistry of Palacky University in Olomouc. The studies were performed using female 8–10-week-old athymic BALB/c nude mice (Envigo, Horst, The Netherlands). […]
Tumor xenografts were established near the front shoulder of mice by subcutaneous injection of 5 × 10^6 cells (U-87 MG) or 2 × 10^6 cells (A431-CCK2R) and the same amount of A431-mock cells as a control in 200 μL appropriate medium and Matrigel (1:1). […] Tumors, blood, muscle tissue, and organs were extracted, weighed, and activity uptake of the samples was measured in the gamma counter. Results were expressed as percentage of injected dose per gram tissue (% ID/g). […] After reconstruction, acquired data was viewed and analyzed with PMOD software (PMOD Technologies Ltd., Zurich, Switzerland). […] Near-infrared in vivo fluorescence imaging was performed with an In-Vivo MS FX PRO small animal imaging system (Bruker Biospin Corporation, Woodbridge, CT, USA). […] An appropriate filter set (excitation = 730 nm and emission = 790 nm) was used for acquiring the Sulfo-Cy7-FSC-peptide - fluorescence in vivo. […]

[2] = metal-bound ([natGa]) complexed form

T1 sequence (P06756 31-889 limits assumed): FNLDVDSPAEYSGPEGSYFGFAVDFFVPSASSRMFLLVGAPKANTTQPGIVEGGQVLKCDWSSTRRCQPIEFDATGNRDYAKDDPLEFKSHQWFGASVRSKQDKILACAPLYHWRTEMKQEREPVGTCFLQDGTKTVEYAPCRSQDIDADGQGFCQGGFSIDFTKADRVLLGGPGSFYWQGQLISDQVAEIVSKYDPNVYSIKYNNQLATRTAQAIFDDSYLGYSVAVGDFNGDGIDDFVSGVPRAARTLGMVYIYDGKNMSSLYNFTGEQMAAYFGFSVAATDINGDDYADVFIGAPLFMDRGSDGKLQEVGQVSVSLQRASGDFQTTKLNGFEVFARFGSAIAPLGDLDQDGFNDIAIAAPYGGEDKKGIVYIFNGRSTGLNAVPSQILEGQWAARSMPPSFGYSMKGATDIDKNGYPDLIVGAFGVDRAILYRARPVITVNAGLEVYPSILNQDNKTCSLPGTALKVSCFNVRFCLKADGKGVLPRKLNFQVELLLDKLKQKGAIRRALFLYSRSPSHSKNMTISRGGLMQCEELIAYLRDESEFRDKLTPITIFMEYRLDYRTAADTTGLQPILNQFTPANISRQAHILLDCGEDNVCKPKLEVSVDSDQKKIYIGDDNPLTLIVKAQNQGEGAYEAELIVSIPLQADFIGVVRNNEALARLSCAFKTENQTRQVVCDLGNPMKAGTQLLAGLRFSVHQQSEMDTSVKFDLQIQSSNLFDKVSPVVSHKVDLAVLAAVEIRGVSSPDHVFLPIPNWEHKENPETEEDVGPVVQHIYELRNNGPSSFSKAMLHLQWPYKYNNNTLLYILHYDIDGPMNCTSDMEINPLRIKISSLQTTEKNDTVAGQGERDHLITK
T1 sequence (P06756 891-1048 partner limits assumed): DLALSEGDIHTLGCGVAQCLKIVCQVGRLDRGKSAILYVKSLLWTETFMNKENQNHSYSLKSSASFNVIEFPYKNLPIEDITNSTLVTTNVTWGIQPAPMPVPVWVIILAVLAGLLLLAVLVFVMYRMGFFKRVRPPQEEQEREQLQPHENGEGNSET
T1 sequence (P05106 27-788): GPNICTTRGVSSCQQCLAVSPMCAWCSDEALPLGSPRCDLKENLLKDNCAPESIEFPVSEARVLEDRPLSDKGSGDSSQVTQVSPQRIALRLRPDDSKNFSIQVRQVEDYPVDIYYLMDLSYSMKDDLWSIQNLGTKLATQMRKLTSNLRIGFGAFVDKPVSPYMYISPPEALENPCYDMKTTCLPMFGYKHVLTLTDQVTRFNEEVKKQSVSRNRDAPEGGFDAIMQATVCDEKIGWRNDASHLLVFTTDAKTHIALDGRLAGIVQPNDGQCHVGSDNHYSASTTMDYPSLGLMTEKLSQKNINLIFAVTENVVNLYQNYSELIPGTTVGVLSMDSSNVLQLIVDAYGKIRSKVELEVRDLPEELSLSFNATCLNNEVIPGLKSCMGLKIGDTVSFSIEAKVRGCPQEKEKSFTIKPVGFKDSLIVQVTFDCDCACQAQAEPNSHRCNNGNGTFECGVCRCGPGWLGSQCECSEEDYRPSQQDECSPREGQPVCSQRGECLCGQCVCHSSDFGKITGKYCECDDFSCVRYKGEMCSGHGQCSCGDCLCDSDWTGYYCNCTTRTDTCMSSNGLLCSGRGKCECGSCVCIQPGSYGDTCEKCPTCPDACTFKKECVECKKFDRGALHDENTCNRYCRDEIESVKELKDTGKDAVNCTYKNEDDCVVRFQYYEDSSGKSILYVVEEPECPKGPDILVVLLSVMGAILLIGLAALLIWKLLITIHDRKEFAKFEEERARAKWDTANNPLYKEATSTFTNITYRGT

IC50 (integrin αvβ3; metal-free conjugate or reference peptide, radioligand [125I]-c(RGDyV), 2 h RT): 15.2 ± 2.86 nM
SMILES: CC(C)[C@@H]1NC(=O)[C@@H](Cc2ccc(O)cc2)NC(=O)[C@H](CC(=O)O)NC(=O)CNC(=O)[C@H](CCCNC(=N)N)NC1=O [c(RGDyV), reference compound]

IC50 (human CCK-2 receptor; [2]): 2.68 ± 0.53 nM
SMILES: CSCC[C@H](NC(=O)[C@H](Cc1c[nH]c2ccccc12)NC(=O)CNC(=O)[C@H](Cc1ccc(O)cc1)NC(=O)[C@H](C)NC(=O)[C@@H](CCC(=O)O)NC(=O)CCSC1CC(=O)N(CCC(=O)NC2CCCN(O)C(=O)C=C(C)CCOC(=O)C(NC(=O)CCN3C(=O)CC(SCCC(=O)N[C@H](CCC(=O)O)C(=O)N[C@@H](C)C(=O)N[C@@H](Cc4ccc(O)cc4)C(=O)NCC(=O)N[C@@H](Cc4c[nH]c5ccccc45)C(=O)N[C@@H](CCSC)C(=O)N[C@@H](CC(=O)O)C(=O)N[C@@H](Cc4ccccc4)C(N)=O)C3=O)CCCN(O)C(=O)C=C(C)CCOC(=O)C(NC(=O)CCCCC[N+]3=C(C=CC4=CC(=CC=C5N(C)c6ccc(S(=O)(=O)O)cc6C5(C)C)CCC4)C(C)(C)c4cc(S(=O)(=O)[O-])ccc43)CCCN(O)C(=O)C=C(C)CCOC2=O)C1=O)C(=O)N[C@@H](CC(=O)O)C(=O)N[C@@H](Cc1ccccc1)C(N)=O (stereo partly drawn) [[^natGa]Sulfo-Cy7-FSC-MG, metal not drawn] (I: [Mpa][dE]AYGWMDF-NH2 / II: [Mpa][dE]AYGWMDF-NH2; linker I:1-II:1 via X2)

IC50 (integrin αvβ3; [natGa] bound form): 0.81 ± 0.19 nM
SMILES: CC1=CC(=O)N(O)CCCC(NC(=O)CCN2C(=O)CC(SCCOCCOCCOCCOCCC(=O)NCCCC[C@@H]3NC(=O)[C@@H](Cc4ccccc4)NC(=O)[C@H](CC(=O)O)NC(=O)CNC(=O)[C@H](CCCNC(=N)N)NC3=O)C2=O)C(=O)OCCC(C)=CC(=O)N(O)CCCC(NC(=O)CCN2C(=O)CC(SCCOCCOCCOCCOCCC(=O)NCCCC[C@@H]3NC(=O)[C@@H](Cc4ccccc4)NC(=O)[C@H](CC(=O)O)NC(=O)CNC(=O)[C@H](CCCNC(=N)N)NC3=O)C2=O)C(=O)OCCC(C)=CC(=O)N(O)CCCC(NC(=O)CCCCC[N+]2=C(C=CC3=CC(=CC=C4N(C)c5ccc(S(=O)(=O)O)cc5C4(C)C)CCC3)C(C)(C)c3cc(S(=O)(=O)[O-])ccc32)C(=O)OCC1 (stereo partly drawn) [[^natGa]Sulfo-Cy7-FSC-RGD, metal not drawn]

IC50 (human CCK-2 receptor; [2]): 2.68 ± 0.53 nM
IC50 (human CCK-2 receptor; metal-free (uncomplexed) conjugate or reference peptide, radioligand [125I]-[Leu15]-Gastrin I, 1 h RT): 2.81 ± 0.66 nM
SMILES: CSCC[C@H](NC(=O)[C@H](Cc1c[nH]c2ccccc12)NC(=O)CNC(=O)[C@H](Cc1ccc(O)cc1)NC(=O)[C@H](C)NC(=O)[C@@H](CCC(=O)O)NC(=O)CCSC1CC(=O)N(CCC(=O)NC2CCCN(O)C(=O)C=C(C)CCOC(=O)C(NC(=O)CCN3C(=O)CC(SCCC(=O)N[C@H](CCC(=O)O)C(=O)N[C@@H](C)C(=O)N[C@@H](Cc4ccc(O)cc4)C(=O)NCC(=O)N[C@@H](Cc4c[nH]c5ccccc45)C(=O)N[C@@H](CCSC)C(=O)N[C@@H](CC(=O)O)C(=O)N[C@@H](Cc4ccccc4)C(N)=O)C3=O)CCCN(O)C(=O)C=C(C)CCOC(=O)C(NC(=O)CCCCC[N+]3=C(C=CC4=CC(=CC=C5N(C)c6ccc(S(=O)(=O)O)cc6C5(C)C)CCC4)C(C)(C)c4cc(S(=O)(=O)[O-])ccc43)CCCN(O)C(=O)C=C(C)CCOC2=O)C1=O)C(=O)N[C@@H](CC(=O)O)C(=O)N[C@@H](Cc1ccccc1)C(N)=O (stereo partly drawn) [Sulfo-Cy7-FSC-MG, Sulfo-Cyanine7-FSC-(mal-MG11)2] (I: [Mpa][dE]AYGWMDF-NH2 / II: [Mpa][dE]AYGWMDF-NH2; linker I:1-II:1 via X2)
Fluorescence-determined cell uptake (A431-CCK2R cells; blocked A431-CCK2R cells): 1.65 ± 0.47%
Fluorescence-determined cell uptake (A431-CCK2R cells; nonblocked A431-CCK2R cells): 10.78 ± 1.04%
optical imaging tumor contrast ([1]; 2 h after injection): moderate contrast
optical imaging tumor contrast ([1]; 5 h up to 3 days p.i.): excellent contrast
